For one assay, the system named is SW 1116. As to the kind of experiment: Antiproliferative activity against human SW1116 cells after 48 hrs by MTT assay. The conditions noted are these: SW 1116, 48 h. For orientation: Tetrazolium assays rely on reduction of a dye to a coloured formazan, in cell work by metabolically active cells.
A further assay concerns BGC-823. As to the kind of experiment: cells. The conditions noted are these: Homo sapiens, BGC-823, 48 h.
The test system of a further assay is HepG2. Description: cells. The conditions noted are these: Homo sapiens, HepG2, 48 h.
The next assay concerns HeLa. Description: cells. The following applies: Homo sapiens, 48 h.

Bounds are passed on as bounds.

The term IC50 denotes the midpoint of a concentration-inhibition curve. Read a low IC50 as greater potency.

Description for BGC-823: Antiproliferative activity against human BGC823 cells after 48 hrs by MTT assay

On to `S=c1oc(-c2ccc3c(c2)OCCO3)nn1CN1CCN(c2cccc(Cl)c2)CC1`, for which the half-inhibitory concentration (IC50) is greater than 50 µM with SW 1116, greater than 50 µM in the assay on BGC-823, greater than 50 µM in the assay on HepG2 and 47.2 µM in the assay on HeLa.

Take `Cc1ccc(N2CCN(Cn3nc(-c4ccc5c(c4)OCCO5)oc3=S)CC2)c(C)c1`: the IC50 in the assay with SW 1116 was greater than 50 µM; in the assay with BGC-823, 28.3 µM; with HepG2 it was 28.4 µM; in the assay on HeLa, greater than 50 µM.

In the case of `FC(F)(F)c1cccc(N2CCN(Cn3nc(-c4ccc5c(c4)OCCO5)oc3=S)CC2)c1`, the IC50 was 47.1 µM in the assay with SW 1116, greater than 50 µM in the assay with BGC-823, 5.78 µM in the assay with HepG2 and greater than 50 µM in the assay with HeLa.

Consider `S=c1oc(-c2ccc3c(c2)OCCO3)nn1CN1CCN(C(c2ccccc2)c2ccccc2)CC1`, for which the IC50 was 21.6 µM in the assay with SW 1116, greater than 50 µM in the assay with BGC-823, 9.12 µM with HepG2 and greater than 50 µM in the assay on HeLa.

For `S=c1oc(-c2ccc3c(c2)OCCO3)nn1CN1CCN(c2ccccn2)CC1`, the IC50 is 9.49 µM with SW 1116, 25.9 µM in the assay with BGC-823, 11.3 µM with HepG2 and 25.1 µM in the assay on HeLa.

As for `S=c1oc(-c2ccc3c(c2)OCCO3)nn1CN1CCN(c2ccc(Cl)cc2)CC1`, the IC50 in the assay with SW 1116, with BGC-823, with HepG2 and in the assay on HeLa was greater than 50 µM in each case.

Turning to `COc1cccc(N2CCN(Cn3nc(-c4ccc5c(c4)OCCO5)oc3=S)CC2)c1`, the half-inhibitory concentration (IC50) in the assay with SW 1116 was greater than 50 µM; in the assay with BGC-823, greater than 50 µM; in the assay with HepG2, 21.4 µM; in the assay on HeLa, 18 µM.

As for `Fc1ccccc1N1CCN(Cn2nc(-c3ccc4c(c3)OCCO4)oc2=S)CC1`, the half-inhibitory concentration (IC50) in the assay with SW 1116 was 37.8 µM; in the assay with BGC-823, greater than 50 µM; in the assay with HepG2, greater than 50 µM; with HeLa it was 37.3 µM.

Regarding `S=c1oc(-c2ccc3c(c2)OCCO3)nn1CN1CCN(Cc2ccccc2)CC1`, the IC50 is greater than 50 µM in the assay with SW 1116, 28.7 µM in the assay with BGC-823, 18 µM with HepG2 and 27.1 µM in the assay with HeLa.

In the case of `S=c1oc(-c2ccc3c(c2)OCCO3)nn1CN1CCN(c2ccccc2)CC1`, the IC50 in the assay on SW 1116, in the assay with BGC-823, with HepG2 and with HeLa was greater than 50 µM throughout.

In the case of `S=c1oc(-c2ccc3c(c2)OCCO3)nn1CN1CCN(c2cccc(Cl)c2Cl)CC1`, the IC50 with SW 1116 was 37.1 µM; in the assay with BGC-823, 22.6 µM; in the assay on HepG2, greater than 50 µM; with HeLa, greater than 50 µM.

Regarding `COc1ccc(N2CCN(Cn3nc(-c4ccc5c(c4)OCCO5)oc3=S)CC2)cc1`, the concentration for half-maximal inhibition (IC50) is 24.2 µM with SW 1116, 18.9 µM in the assay with BGC-823, greater than 50 µM with HepG2 and greater than 50 µM with HeLa.

Regarding `O=[N+]([O-])c1ccc(N2CCN(Cn3nc(-c4ccc5c(c4)OCCO5)oc3=S)CC2)cc1`, the IC50 in the assay on SW 1116 is greater than 50 µM; in the assay with BGC-823, greater than 50 µM; with HepG2 it was 29.5 µM; with HeLa, 31.7 µM.

With `S=c1oc(-c2ccc3c(c2)OCCO3)nn1CN1CCN(c2ccc(Cl)c(Cl)c2)CC1`, the IC50 in the assay with SW 1116 is 33.4 µM; in the assay with BGC-823, greater than 50 µM; with HepG2, 23.8 µM; with HeLa it was greater than 50 µM.

As for `COc1ccccc1N1CCN(Cn2nc(-c3ccc4c(c3)OCCO4)oc2=S)CC1`, the IC50 with SW 1116 is 16.9 µM; with BGC-823 it was 19.5 µM; in the assay on HepG2 it was 15.5 µM; with HeLa, greater than 50 µM.

`S=c1oc(-c2ccc3c(c2)OCCO3)nn1CN1CCN(c2ccccc2Cl)CC1`: the IC50 in the assay on SW 1116 is greater than 50 µM; with BGC-823, greater than 50 µM; in the assay with HepG2 it was 11.4 µM; with HeLa, 37.4 µM.

Turning to `Fc1ccc(N2CCN(Cn3nc(-c4ccc5c(c4)OCCO5)oc3=S)CC2)cc1`, the IC50 with SW 1116, with BGC-823, with HepG2 and with HeLa was greater than 50 µM in each case.

In the case of `O=c1[nH]cc(F)c(=O)[nH]1` [FLUOROURACIL], the IC50 in the assay with SW 1116 worked out at 18.5 µM; in the assay with BGC-823, 17.4 µM; in the assay with HepG2, 13.3 µM; in the assay on HeLa, 9.02 µM.

(Values after ChEMBL document CHEMBL4017451, “Discovery of a series of 1,3,4-oxadiazole-2(3H)-thione derivatives containing piperazine skeleton as potential FAK inhibitors” (Bioorg Med Chem, 2017).)
